Source: US20220387405A1, “METHODS OF TREATMENT WITH N-((R)-1-(3-CHLOROPYRIDIN-2-YL)-2,2,2-TRIFLUOROETHYL)-2-((S)-2,6-DIOXOPIPERIDIN-3-YL)-1-OXOISOINDOLINE-5-CARBOXAMIDE” (CELGENE CORPORATION, priority 2021, published 2022)

Legend:
[1] = tested on: leukemic cells from TP53 WT AML patients; assay: PharmaFlow test (Vivia), cytotoxic effect on leukemic cells in AML patient BM samples; type: cell-based, human; conditions: AML patient samples
[2] = tested on: Normal T lymphocytes in BM samples; assay: PharmaFlow test, normal T lymphocytes in AML patient BM samples; type: cell-based, human; conditions: BM samples of AML patients; for Compound 1 all but 1 patient
[3] = tested on: human peripheral blood (PB) lymphocytes; assay: In vitro mammalian cell micronucleus test; conditions: 4 hours with and without S9, 24 hours without S9; compared with negative controls
Procedure: Compound 1 was tested in the in vitro mammalian cell micronucleus test in human peripheral blood (PB) lymphocytes in the presence and absence of a metabolic activation system, Aroclor-induced rat liver fraction (S9), for 4 hours, and in the absence of S9 for 24 hours. The highest concentration tested was 481 μg/mL. Dimethyl sulfoxide (DMSO) was used as the solvent. […] In addition, 2 lower concentrations with appropriate concentration and cytotoxicity spacing were chosen for micronucleus scoring in each regime.

SMILES: COc1cc(C(=O)O)ccc1NC(=O)[C@@H]1N[C@@H](CC(C)(C)C)[C@](C#N)(c2ccc(Cl)cc2F)[C@H]1c1cccc(Cl)c1F [RG7388, idasanutlin, reference compound]
- cytotoxicity in leukemic cells [1]: pan-cytotoxicity
- cytotoxicity in T lymphocytes [2]: pan-cytotoxicity

SMILES: O=P1(N(CCCl)CCCl)NCCCO1 (stereo not shown) [cyclophosphamide monohydrate, reference compound]
- proportion of micronucleated binucleate cells (MBC) [3]: statistically significant increases

SMILES: COC(=O)Nc1nc2ccc(C(=O)c3cccs3)cc2[nH]1 [nocodazole, reference compound]
- proportion of micronucleated binucleate cells (MBC) [3]: statistically significant increases
